Experiment: Inhibition of [3H](+)-pentazocine binding to sigma receptor of guinea pig brain

| Compound | Ki [µM] |
| --- | --- |
| C[N+]1(C)CCC2(c3cccc(O)c3)CC(=O)C(=Cc3ccccc3)C1C2 (configuration not stated) [5-(3-Hydroxy-phenyl)-2,2-dimethyl-7-oxo-8-[1-phenyl-meth-(E)-ylidene]-2-azonia-bicyclo[3.3.1]nonane; iodide] | 5.4 |
| COc1cccc([C@]23CCN(C)[C@H](CC(=O)C2)C3)c1 | 0.762 |
